Laboratory results taken from PMC7261837, “Circumdatin D Exerts Neuroprotective Effects by Attenuating LPS-Induced Pro-Inflammatory Responses and Downregulating Acetylcholinesterase Activity In Vitro and In Vivo” (Frontiers in Pharmacology, 2020).

Columns and labels:
[1] = test system: JaK2/STAT3 signaling pathway; assay: JaK2/STAT3 phosphorylation and STAT3 translocation in LPS-induced BV-2 cells; type: cell-based, murine; settings: 1 μg/ml LPS, 10, 20, 50 μM, 3 h
Procedure: BV2 cells were seeded on glass coverslips and treated with circumdatin D in the presence or absence of LPS for indicated time. After that, the cells were washed twice with PBS and fixed with cold 4% paraformaldehyde for 30 min. Then, the cells were permeabilized with 0.1% Triton X-100 for 10 min and blocked with 5% bovine serum albumin for 1 h. After incubation with primary antibodies overnight at 4°C, the cells were incubated with Alexa Fluor 488-conjugated secondary antibodies (Proteintech, USA) for 1 h at room temperature. Furthermore, Hochest 33342 was added to stain cell nuclei. Images were acquired and analyzed using a confocal microscope (Leica, Germany).
Total cell proteins were lysed using cell extraction buffer containing phenylmethylsulfonyl ﬂuoride and protease inhibitor cocktail. The cytosolic and nuclear extracts were collected using the Nuclear and Cytosolic extraction kit. The protein extracts were separated on SDS-PAGE and transferred to PVDF membranes (Millipore). The membrane was blocked with 5% nonfat milk for 1 h at room temperature, and incubated with indicated primary antibodies overnight at 4°C. After washing, the membrane was incubated with secondary antibodies conjugated to horseradish peroxidase (Proteintech, USA) at room temperature for 1 h. […] The relative optical densities were analyzed using the Image Master™ 2D Elite software.

[2] = molecular target: T1, acetylcholinesterase (AChE) from Electrophorus electrics (Electric eel) (Electrophorus electricus, UniProt O42275); assay: biochemical; settings: modified Ellman's colorimetric method; mean ± SD (n = 3)
T1 construct: purchased Sigma Chemical Co. (St Louis, MO, USA)
Excerpt: Dulbecco's modified Eagle medium (DMEM), α-minimum essential medium (α-MEM) and fetal bovine serum (FBS) were provided by Hyclone (Waltham, USA). 3-(4,5-Dimethylthiazol-2-yl)-2,5-diphenyltetrazolium bromide (MTT), acetylcholinesterase (AChE) from Electrophorus electrics (Electric eel) and lipopolysaccharide (LPS) (Escherichia coli 055: B5) were provided by Sigma Chemical Co. (St Louis, MO, USA). Enzyme-linked immunosorbent assay (ELISA) kits for IL-1β and TNF-α and Griess reagent for nitric oxide (NO) assay kit were provided by ExCell Bio (Shanghai, China). Antibodies for TLR4, MyD88, JNK, p-JNK, p38, p-p38, ERK, p-ERK, IκB, p-IκB, IKK, p-IKK, NF-κB, STAT3、p-STAT3、Jak2, p-Jak2, GAPDH and Histone H3 were purchased from Cell Signaling Technology (Danvers, USA). Antibodies for iNOS and COX-2 were provided by Abcam (Cambridge, UK).
(§1) AChE activities in vitro and in vivo were assessed by a modified Ellman's spectrophotometric method ([Szwajgier, 2015]). Briefly, AChE (80 μl) in phosphate buffer (Na2HPO4/NaH2PO4, pH 8.0) and compound (20 μl) diluted in same phosphate buffer were added to 96 microplates as the reaction mixture. The mixture was incubated at 37°C for 30 min before addition of 10 μl 5,5′-dithiobis (2-nitrobenzoic acid) (DTNB) (3 mM) and 10 μl acetylthiocholine iodide (ATCI) (15 mM). After incubation for 20 min, the absorbance was detected at 412 nm using a microplate spectrophotometer (Thermo Scientifics, USA). […] The inhibitory rate of AChE was calculated, and the IC50 values were calculated by GraphPad Prism® 5.0 software (GraphPad Inc., San Diego, USA).

[3] = molecular target: T2, AChE in primary cortical neurons (Rattus norvegicus, UniProt P37136); assay: AChE activity in LPS-treated primary neurons (modified Ellman); type: cell-based; settings: 1 μg/ml LPS, 1–100 μM, 48 h
T2 construct: primary cortical neurons were isolated from embryos of pregnant Sprague Dawley rats of E-18; endogenous in cells; host or cells: primary cortical neurons from E-18 Sprague Dawley rat embryos
Procedure: as §1

[4] = test system: BV-2 cells; assay: ELISA for TNF-α and IL-1β in LPS-induced BV-2 cells; type: cell-based, murine; settings: 1 μg/ml LPS, 10, 20, 50 μM, 6 h TNF-α, 8 h IL-1β
Procedure: Cells were treated with different concentrations of circumdatin D in the presence or absence of LPS for indicated time. Then, the culture media were collected and centrifuged at 12,000g, 4°C for 20 min. The levels of TNF-α and IL-β in the supernatants were determined by ELISA kits according to the manufacturer's instructions.

[5] = test system: C. elegans CL4176; assay: Paralysis assay in transgenic C. elegans CL4176; type: in vivo, Caenorhabditis elegans; settings: 36 h after temperature upshift 16 to 25°C
Procedure: The in vivo effects of circumdatin D on pro-inflammatory response and AChE activity were evaluated using C. elegans as animal model. Transgenic C. elegans CL4176 and E. coli OP50 were bought from the Caenorhabditis Genetics Center (University of Minnesota, Minneapolis, MN, USA). CL4176 strain become paralysis after up-shifting temperature from 16 to 25°C due to expressing human β-amyloid peptide in muscle cells. The nematodes were cultivated on nematode growth medium (NGM) plates (1.7% Agar, 0.3% NaCl, 0.25% peptone, 1 mM CaCl2, 1 mM MgSO4, 5 mg/L cholesterol, and 2.5 mM K2HPO4) with E. coli OP50 at 16°C. In paralysis assay, egg-synchronized CL4176 nematodes were incubated on solid NGM plates with E. coli OP50 at 16°C. When the age of the worms grew to L4 stage, nematodes were divided into four groups and exposed to appropriate concentrations of circumdatin D or vehicle control (0.4% DMSO) at 16 °C for 36 h. The temperature was then raised from 16 to 25°C, the number of paralyzed worms was counted under the microscope. The paralyzed worms were recognized for those with no response or only moved head when gently touched with a platinum wire. Each independent assay included three NGM plates with 30 worms for each one. Likewise, the AChE activity and RT-PCR assay was employed using similar conditions.
In paralysis assay, CL4176 worms were egg-synchronized onto fresh NGM plates containing OP50 bacteria at 16℃. To induce the transgene expression, the temperature raised from 16 to 25℃ and lasted until the end of the paralysis assay. The recording was performed at two hours interval typically after 24h at 25 °C until the majority of worm became paralyzed. The worms were considered as paralyzed if there was no response or they only moved their head when gently touched with a platinum wire. Each independent assay included three NGM plates with twenty worms in each one.

T1 sequence (O42275 24-633): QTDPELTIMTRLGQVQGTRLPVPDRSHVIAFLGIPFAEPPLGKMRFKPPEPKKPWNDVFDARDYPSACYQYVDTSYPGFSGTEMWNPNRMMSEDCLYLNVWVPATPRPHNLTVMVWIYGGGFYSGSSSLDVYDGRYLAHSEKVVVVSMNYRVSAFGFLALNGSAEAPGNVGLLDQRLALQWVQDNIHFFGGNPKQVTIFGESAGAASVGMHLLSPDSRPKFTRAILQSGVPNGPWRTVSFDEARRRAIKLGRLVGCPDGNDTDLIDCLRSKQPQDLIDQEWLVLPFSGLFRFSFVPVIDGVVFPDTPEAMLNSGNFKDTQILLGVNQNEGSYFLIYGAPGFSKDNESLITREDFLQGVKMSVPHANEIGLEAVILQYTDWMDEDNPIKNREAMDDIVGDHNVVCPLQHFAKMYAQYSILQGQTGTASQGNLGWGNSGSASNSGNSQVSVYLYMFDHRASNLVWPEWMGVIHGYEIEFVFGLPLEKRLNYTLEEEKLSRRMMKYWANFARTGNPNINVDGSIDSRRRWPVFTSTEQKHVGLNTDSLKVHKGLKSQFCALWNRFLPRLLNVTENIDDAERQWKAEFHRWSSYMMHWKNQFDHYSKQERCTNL
T2 sequence (P37136 32-614): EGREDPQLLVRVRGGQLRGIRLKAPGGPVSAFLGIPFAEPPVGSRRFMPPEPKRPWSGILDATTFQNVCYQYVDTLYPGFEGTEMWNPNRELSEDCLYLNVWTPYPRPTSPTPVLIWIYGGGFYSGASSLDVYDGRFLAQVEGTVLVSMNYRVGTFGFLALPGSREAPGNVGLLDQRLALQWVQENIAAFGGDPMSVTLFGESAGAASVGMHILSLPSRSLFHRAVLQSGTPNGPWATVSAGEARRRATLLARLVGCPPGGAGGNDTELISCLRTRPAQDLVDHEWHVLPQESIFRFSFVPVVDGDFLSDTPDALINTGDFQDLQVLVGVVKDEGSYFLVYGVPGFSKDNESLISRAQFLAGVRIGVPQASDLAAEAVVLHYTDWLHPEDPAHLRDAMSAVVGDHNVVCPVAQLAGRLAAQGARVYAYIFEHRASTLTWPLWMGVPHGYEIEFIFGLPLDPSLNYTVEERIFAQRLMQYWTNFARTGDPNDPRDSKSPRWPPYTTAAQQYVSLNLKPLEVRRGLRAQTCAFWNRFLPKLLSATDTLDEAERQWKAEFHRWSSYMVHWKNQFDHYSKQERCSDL

With COc1ccc2c(c1)C(=O)N1CCC[C@H]1c1nc3ccc(OC)cc3c(=O)n1-2 [circumdatin D] the “LPS-induced phosphorylation of JaK2” value [1] was “strongly reduced LPS-induced phosphorylation of JaK2”, the “phosphorylation and nuclear translocation of STAT3” value [1] was “effectively inhibited the phosphorylation and translocation of STAT3” and the IC50 [2] was 2400 ± 500 nM. For the same compound, the “LPS-induced AChE activity in primary neuronal cells” value [3] was “markedly reduced the LPS-induced AChE activities”, the “LPS-induced TNF-α and IL-1β production (ELISA)” value [4] was “suppressed LPS-induced TNF-α and IL-1β production” and the reduction of paralysis ([5]; CL4176, 50 μM) was “about 24.9%”. For the same compound, the reduction of paralysis ([5]; CL4176, 100 μM) was roughly 42.8% and the reduction of paralysis ([5]; CL4176, 200 μM) was roughly 74.8%.
